Read-outs that look alike come from different tables or passages of the source.
Experiment: Skin-Pampa assay
Type: in vitro ADME
Settings: for Multiplicity (relative to the prototype drug): Skin-Pampa Pe of prodrug relative to its prototype drug
Protocol: • 1. Hydrate the Skin-Pampa membrane with hydration solution overnight. • 2. Dissolve each compound to be tested in DMSO and prepare 0.5 mL 20 mM solutions of the test compounds. Take 50 uL of solutions of the test compounds to the corresponding 5 mL of donor solution and mix well. • 3. Add 200 μL of the sample solution to the donor (bottom) plate and add 200 μL of acceptor solution into the wells of the acceptor (TOP) plate, and 12 wells are incubated in parallel for each sample. • 4. After 7 hours of incubation, 100 μL of the sample in each of the donor plate and 100 μL of the sample in each of the acceptor plate were sampled and then added with 200 μL of dilution (50% acetonitrile aqueous solution), mixed by vortexing and centrifuged, 200 μL of the supernatant was used for HPLC content detection. • 5. The Skin-Pampa parameters are calculated according to the following equation
[formula] [formula] • Pe—effective permeability coefficient; • VA— the volume of acceptor well (ml); • VD— the volume of donorwell (ml); • A—the filtration area (cm^2); • t—the incubation time (s); • tLAG—the steady-state time (s); • CD(t)—the concentration of the compound in donorwell at t; • CA(t)—the concentration of the compound in acceptor well at t; • CD(0)—the concentration at the compound in donorwell at 0.

[1] = Skin-Pampa, 7 hours of incubation, 12 wells in parallel, HPLC detection
[2] = Skin-Pampa, 7 hours of incubation, 12 wells in parallel, HPLC detection, read-out: Pe (effective permeability coefficient)

Row | Multiplicity (relative to the prototype drug) | LogPe [1] | Papp at 7 h, 200 µM [2] | SMILES | Papp at 7 h, 200 µM (PAMPA) | LogPe (PAMPA, 7 h, 200 µM)
1 | 7.38-10.08 | −5.53 ± 0.08 | 2.98 ± 0.56 ×10⁻⁶ cm/s | CCCCCCCCC(=O)OCn1ccc2c(N(C)[C@H]3CN(C(=O)CC#N)CC[C@H]3C)ncnc21 [Example 7] | – | –
2 | 8.59-15.6 | −6.01 ± 0.19 | 1.07 ± 0.39 ×10⁻⁶ cm/s | CCCCC(CC)CCC(=O)OCn1ccc2c(NC3C4CC5CC3CC(O)(C5)C4)c(C(N)=O)cnc21 (stereo not shown) [Example 13] | – | –
3 | – | −6.88 ± 0.34 | 0.13 ± 0.17 ×10⁻⁶ cm/s | N#CCC1(n2cc(-c3ncnc4[nH]ccc34)cn2)CN(C2CCN(C(=O)c3ccnc(C(F)(F)F)c3F)CC2)C1 [Itacitinib, reference compound] | – | –
4 | – | −7.06 ± 0.33 | 0.11 ± 0.06 ×10⁻⁶ cm/s | NC(=O)c1cnc2[nH]ccc2c1N[C@@H]1[C@@H]2CC3C[C@H]1C[C@@](O)(C3)C2 [Peficitinib, reference compound] | – | –
5 | – | −6.45 ± 0.14 | 0.36 ± 0.12 ×10⁻⁶ cm/s | C[C@@H]1CCN(C(=O)CC#N)C[C@@H]1N(C)c1ncnc2[nH]ccc12 [Tofacitinib, reference compound] | – | –
6 | – | −6.96 ± 0.20 | 0.11 ± 0.05 ×10⁻⁶ cm/s | CC[C@@H]1CN(C(=O)NCC(F)(F)F)C[C@@H]1c1cnc2cnc3[nH]ccc3n12 [Upadacitinib, reference compound] | – | –

The remaining lines, values behind:

Row | SMILES | Multiplicity (relative to the prototype drug) | LogPe [1] | Papp at 7 h, 200 µM [2] | Papp at 7 h, 200 µM (PAMPA) | LogPe (PAMPA, 7 h, 200 µM)
7 | CCCCCCCC(=O)OCn1ccc2c(N(C)[C@H]3CN(C(=O)CC#N)CC[C@H]3C)ncnc21 [Example 1] | 4.31-4.46 | – | – | 1.57 ± 0.5 ×10⁻⁶ cm/s | −5.80 ± 0.11
8 | CCCCC(CC)CCC(=O)OCn1ccc2c(N(C)[C@H]3CN(C(=O)CC#N)CC[C@H]3C)ncnc21 (stereo partly shown) [Example 4] | 8.25-8.92 | −5.50 ± 0.17 | 3.13 ± 1.15 ×10⁻⁶ cm/s | – | –
9 | CCCCCCCCCCCC(=O)OCn1ccc2c(N(C)[C@H]3CN(C(=O)CC#N)CC[C@H]3C)ncnc21 [Example 5] | 6.88-8.15 | −5.56 ± 0.16 | 2.78 ± 1.13 ×10⁻⁶ cm/s | – | –
10 | CCCCCCCCCC(=O)OCn1ccc2c(N(C)[C@H]3CN(C(=O)CC#N)CC[C@H]3C)ncnc21 [Example 8] | 5.29-7.67 | −5.66 ± 0.08 | 2.19 ± 0.35 ×10⁻⁶ cm/s | – | –
11 | CCCCC(CC)CCC(=O)OCn1ccc2c1ncc1ncc([C@H]3CN(C(=O)NCC(F)(F)F)C[C@H]3CC)n12 (stereo partly shown) [Example 14] | 6.81-8.83 | −6.09 ± 0.19 | 0.81 ± 0.28 ×10⁻⁶ cm/s | – | –
12 | CCCCC(CC)CCC(=O)OCn1ccc2c(-c3cnn(C4(CC#N)CN(C5CCN(C(=O)c6ccnc(C(F)(F)F)c6F)CC5)C4)c3)ncnc21 (stereo not shown) [Example 15] | 5.8-19.5 | −5.90 ± 0.20 | 1.26 ± 0.48 ×10⁻⁶ cm/s | – | –
13 | CN1C(C(=O)Nc2ccccn2)=C(O)c2ccccc2S1(=O)=O [Piroxicam, reference compound] | – | −5.73 ± 0.06 | 1.84 ± 0.24 ×10⁻⁶ cm/s | – | –

Reference: US20240139327A1, “PRODRUG COMPOUND, PREPARATION METHOD THEREFOR AND USE THEREOF” (MINGHUI PHARMACEUTICAL (HANGZHOU) LIMITED, priority 2021, published 2024)
